Experimental data: US11884649B2, “IRE1α inhibitors and uses thereof” (The Regents of the University of California, priority 2020, dated 2024)

Experiments:
[1] = target: T1, IRE1α* (Homo sapiens, UniProt O75460); assay: In vitro kinase activity assay (IRE1α kinase inhibition); assay type: biochemical
T1 construct: human IRE1α (residues 547-977, IRE1α*) was expressed in SF9 insect cells; His6 (N); made in house; host or cells: Sf9 insect cells (Bac-to-Bac baculovirus)
Outline: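 His6-tagged human IRE1α cytosolic kinase/RNase domains (residues 547-977) from SF9 cells, preincubated 30 min with inhibitor (top 10 or 60 μM, three-fold dilutions) in pH 7.5 HEPES/MgCl2 buffer, then 10 μCi [γ-32P]ATP, 23 °C, 3 h. Filter-spot autoradiography; inhibition normalised to no-kinase and DMSO wells; IC50 from one-site fit.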

[2] = system: RIDD (IRE1α-dependent mRNA decay); assay: RIDD (Blos1 mRNA) in ER-stressed INS-1 cells; assay type: cell-based, rat; details: 2 mM DTT, 20 μM compound
Procedure: (§1) RNA Isolation, Quantitative Real-Time PCR, and Primers
INS-1 or isogenic IRE1α-overexpressing INS-1 cells were plated onto Poly-D-Lysine coated tissue culture plate and grown for 48 hrs. Inhibitors or DMSO were added to the media and incubated for 1 hour at 37° C. with 5% CO2 prior to addition of ER stress agents or Dox as indicated. RNA was isolated from whole cells using either QIAGEN RNeasy Mini kits or Trizol (Invitrogen) and reverse transcribed as above to obtain total cDNA. Then, XBP-1 primers were used to amplify an XBP-1 amplicon spanning the 26 nt intron from the cDNA samples in a regular 3-step PCR. Thermal cycles were: 5 min at 95° C., 30 cycles of 30 s at 95° C., 30 s at 60° C., and 1 min at 72° C., followed by 72° C. for 15 min, and hold at 4° C. Primers used for XBP-1 mRNA splicing were as follows: sense primer XBP1.3 S (5′ […]-3′ (SEQ ID NO:2)) and antisense primer XBP1.2AS (5′-[…]-3′ (SEQ ID NO:3)). PCR fragments were then digested by PstI, resolved on 3% agarose gels, stained with EtBr and quantified by densitometry using ImageJ (NIH). For standard mRNA detection, generally […] total RNA was reverse transcribed using the QuantiTect Reverse Transcription Kit (QIAGEN). For qPCR, we used SYBR green (QIAGEN) and StepOnePlus Real-Time PCR System (Applied Biosystems). Thermal cycles were: 5 min at 95° C., 40 cycles of 15 sec at 95° C., 30 sec at 60° C. […]

[3] = system: RIDD (IRE1α-dependent mRNA decay); assay: Real-time PCR of RIDD mRNA targets in INS-1 cells overexpressing IRE1α (Dox); assay type: cell-based, rat; details: 20 μM, 5 ng/mL Dox
Procedure: as §1
INS-1 or isogenic IRE1α-overexpressing INS-1 cells were plated onto Poly-D-Lysine coated tissue culture plate and grown for 48 hrs. Inhibitors or DMSO were added to the media and incubated for 1 hour at 37° C. with 5% CO2 prior to addition of ER stress agents or Dox as indicated. RNA was isolated from whole cells using either QIAGEN RNeasy Mini kits or Trizol (Invitrogen) and reverse transcribed as above to obtain total cDNA. Then, XBP-1 primers were used to amplify an XBP-1 amplicon spanning the 26 nt intron from the cDNA samples in a regular 3-step PCR. Thermal cycles were: 5 min at 95° C., 30 cycles of 30 s at 95° C., 30 s at 60° C., and 1 min at 72° C., followed by 72° C. for 15 min, and hold at 4° C. Primers used for XBP-1 mRNA splicing were as follows: sense primer XBP1.3 S (5′ […]-3′ (SEQ ID NO:2)) and antisense primer XBP1.2AS (5′-[…]-3′ (SEQ ID NO:3)). PCR fragments were then digested by PstI, resolved on 3% agarose gels, stained with EtBr and quantified by densitometry using ImageJ (NIH). For standard mRNA detection, generally […] total RNA was reverse transcribed using the QuantiTect Reverse Transcription Kit (QIAGEN). For qPCR, we used SYBR green (QIAGEN) and StepOnePlus Real-Time PCR System (Applied Biosystems). Thermal cycles were: 5 min at 95° C., 40 cycles of 15 sec at 95° C., 30 sec at 60° C. Gene expression levels were normalized to Beta Actin. Primers used for qPCR of RIDD targets were as follows: Beta Actin Fwd: 5′-[…]-3′ (SEQ ID NO:4), Beta Actin Rev: 5′-[…]-3′ (SEQ ID NO:5), Insulin 1 Fwd: 5′-GTCCTCTGGGAGCCCAAG-3′ (SEQ ID NO:6), Insulin 1 Rev: 5′-ACAGAGCCTCCACCAGG-3′ (SEQ ID NO:7), Insulin 2 Fwd: 5′-ATCCTCTGGGAGCCCCGC-3′ (SEQ ID NO:8), Insulin 2 Rev: 5′-AGAGAGCTTCCACCAAG-3′ (SEQ ID NO:9), Blos1 Fwd: 5′-[…]-3′ (SEQ ID NO:10), and Blos1 Rev: 5′-[…]-3′ (SEQ ID NO:11).
Real-Time PCR (Q-PCR) used SYBR green and Step OnePlus Real-Time PCR System (Applied Biosystems). Thermal cycles were: 5 min at 95° C., 40 cycles of 15 s at 95° C., 30 s at 60° C. Gene expression levels were normalized to GAPDH. Q-PCR Sense/antisense primers used: Rat GAPDH, 5′-[…]-3′ (SEQ ID NO:14) and 5′-[…]-3′ (SEQ ID NO:15); Rat Ins1, 5′-GTCCTCTGGGAGCCCAAG-3′ (SEQ ID NO:6) and 5′-ACAGAGCCTCCACCAGG-3′ (SEQ ID NO:7); Rat Pdia4, 5′-CGTCTCGCCCTGATTCGT-3′ (SEQ ID NO:16) and 5′-[…]-3′ (SEQ ID NO:17); Rat Blos1, 5′-[…]-3′ (SEQ ID NO:18) and 5′-TGTCCAGTTCGATGCTCCG-3′ (SEQ ID NO:19).
Real-time PCR for FIGS. 34A-34F: Real-Time PCR (Q-PCR) used SYBR green and Step OnePlus Real-Time PCR System (Applied Biosystems). Thermal cycles were: 5 min at 95° C., 40 cycles of 15 s at 95° C., 30 s at 60° C. Gene expression levels were normalized to GAPDH. Q-PCR Sense/antisense primers used: Rat GAPDH, 5′-[…]-3′ (SEQ ID NO:20) and 5′-[…]-3′ (SEQ ID NO:21); Rat Ins1, 5′-GTCCTCTGGGAGCCCAAG-3′ (SEQ ID NO:6) and 5′-ACAGAGCCTCCACCAGG-3′ (SEQ ID NO:7); Rat Ins2, 5′-ATCCTCTGGGAGCCCCGC-3′ (SEQ ID NO:8) and 5′-AGAGAGCTTCCACCAAG-3′ (SEQ ID NO:9); Rat Pdia4, 5′-[…]-3′(SEQ ID NO:22) and 5′-[…]-3′ (SEQ ID NO:23); Rat Blos1, 5′-[…]-3′ (SEQ ID NO:18) and 5′-TGTCCAGTTCGATGCTCCG-3′ (SEQ ID NO:19).

T1 sequence (O75460 547-977): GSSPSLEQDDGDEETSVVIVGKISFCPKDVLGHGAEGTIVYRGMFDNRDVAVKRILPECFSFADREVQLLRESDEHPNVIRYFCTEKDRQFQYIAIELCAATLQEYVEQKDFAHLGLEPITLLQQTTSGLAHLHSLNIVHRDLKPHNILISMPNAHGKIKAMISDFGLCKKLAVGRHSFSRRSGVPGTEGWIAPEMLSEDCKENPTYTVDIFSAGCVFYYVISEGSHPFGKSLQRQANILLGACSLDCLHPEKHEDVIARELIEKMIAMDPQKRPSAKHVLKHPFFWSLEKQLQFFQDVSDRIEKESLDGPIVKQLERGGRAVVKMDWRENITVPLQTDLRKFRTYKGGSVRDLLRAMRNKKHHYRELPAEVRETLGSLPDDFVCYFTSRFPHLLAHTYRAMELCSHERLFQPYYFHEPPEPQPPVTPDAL

Row | Ki ([1]; read-out: Inhibition of IRE1α*'s kinase activity, Ki) | SMILES | RIDD (Blos1 mRNA) [2] | mRNA decay substrates Blos1, Ins1 and Ins2 [3] | IC50 ([1]; IRE1α kinase inhibition, read-out: IC50 IRE1a)
1 | 160 nM | O=S(=O)(CCC(F)(F)F)Nc1ccc(Oc2ncccc2-c2ccnc(NC3CCCNC3)n2)c2ccccc12 (stereo not drawn) [KIRA9, 3,3,3-trifluoro-N-(4-(3-(2-(piperidin-3-ylamino)pyrimidin-4-yl)pyridin-2-yloxy)naphthalen-1-yl)propane-1-sulfonamide] | equivalently blunt RIDD | rescued | –
2 | – | O=S(=O)(CC(F)(F)F)Nc1ccc(Oc2ncccc2-c2ccnc(N[C@H]3CCCNC3)n2)c2ccccc12 (stereo in doubt) [PAIR1, 2,2,2-trifluoro-N-(4-(3-(2-(piperidin-3-ylamino)pyrimidin-4-yl)pyridin-2-yloxy)naphthalen-1-yl)ethanesulfonamide] | equivalently blunt RIDD | rescued | 25 nM
